Key:
[1] = molecular target: T1, Aurora A (Homo sapiens, UniProt O14965); experiment: Aurora A enzymatic activity test, FAM-labeled peptide, Caliper; assay type: biochemical; conditions: FAM-labeled peptide substrate, read-out: Kinase-inhibiting activity IC50 Aurora A
T1 sequence (O14965 1-403): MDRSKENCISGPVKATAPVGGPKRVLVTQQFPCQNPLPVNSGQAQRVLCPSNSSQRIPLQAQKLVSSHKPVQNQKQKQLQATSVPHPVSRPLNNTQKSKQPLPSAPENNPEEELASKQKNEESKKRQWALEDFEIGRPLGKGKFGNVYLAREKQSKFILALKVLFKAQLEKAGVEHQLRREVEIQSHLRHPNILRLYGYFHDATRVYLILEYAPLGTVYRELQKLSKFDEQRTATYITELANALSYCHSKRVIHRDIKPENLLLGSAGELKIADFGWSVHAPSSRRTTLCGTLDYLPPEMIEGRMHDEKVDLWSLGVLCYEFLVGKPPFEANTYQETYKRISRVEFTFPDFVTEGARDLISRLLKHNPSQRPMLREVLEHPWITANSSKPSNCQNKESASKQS
Method: (§1) Test samples: Compounds in the present invention (the sequence numbers and structures thereof are shown in Table 1), dilution concentration: 0.03 μM-3 μM, a total of 10 concentration gradients.
(§2) Test method: enzymatic activity tests of Aurora kinase (including Aurora A and Aurora B) and VEGFR2 (KDR) were performed using a multi-function microplate reader.
(§3) a) 96-well plates, 10 dose groups, 3-fold serial dilutions, each well was added with DMSO, maximal concentration of 500 μM (50-fold compound).
(§4) b) 384-well plates, diluted with 1× kinase buffer (50 mM HEPES, pH 7.5; 0.0015% Brij-35; 2 mM DTT), each well containing 5× compound dissolved in 5 μL of 10% DMSO. Each well of the negative control contains 5 μL of 1× kinase buffer containing 10% DMSO.
(§5) Aurora A, Aurora B and KDR were dissolved in 1× kinase buffer and prepared as a 2.5× enzyme solution. After the compound in various concentrations was reacted with 2.5× enzyme solution at room temperature for 10 min, the FAM-labeled peptide substrate and ATP were added to initiate reaction. After incubation for 40 minutes, 25 μL of terminal solution (100 mM HEPES, pH 7.5; 0.015% Brij-35; 0.2% Coating Reagent #3; 50 mM EDTA) was added to stop the reaction, and the final data were read by Caliper.

[2] = molecular target: T2, KDR(VEGFR2) (Homo sapiens, UniProt P35968); experiment: KDR enzymatic activity test, FAM-labeled peptide, Caliper; assay type: biochemical; conditions: FAM-labeled peptide substrate, read-out: Kinase-inhibiting activity IC50 KDR(VEGFR2)
Method: as §1, §2, §3, §4, §5

[3] = tested on: KG-1 Leukemic cells; experiment: Cell proliferation, Cell Titer-Glo; assay type: cell-based; conditions: 72 hours, read-out: Cellular inhibitory activity IC50 KG-1
Method: (§6) Test method: The effect of compounds on cell proliferation of different cell lines was examined by Cell Titer-Glo method.
(§7) Each cell line was inoculated into a 96-well plate one day in advance, and after overnight incubation, drugs in different concentrations were added to a final concentration of 0-10000 nM, 3-5 folds dilution, for a total of 10 concentration points. After incubation for 72 hours, the mixture was added with Cell titer-Glo reagent equilibrated at room temperature, and shaken to incubation for 10 min, and then allowed to stand at room temperature for 2 min to stabilize the light signal. The multi-function microplate reader was used to read data from each well and analyze it.

[4] = tested on: Kasumi-1 Leukemic cells; experiment: Cell proliferation, Cell Titer-Glo; assay type: cell-based; conditions: Homo sapiens, 72 hours, read-out: Cellular inhibitory activity IC50 Kasumi-1
Method: as §6, §7

[5] = molecular target: T3, Aurora B (Homo sapiens, UniProt Q96GD4); experiment: Aurora B enzymatic activity test, FAM-labeled peptide, Caliper; assay type: biochemical; conditions: FAM-labeled peptide substrate, read-out: Kinase-inhibiting activity IC50 Aurora B
Method: as §1, §2, §3, §4, §5

[6] = molecular target: T3, Aurora B; experiment: Aurora B kinase activity test, [γ-33P]-ATP filter membrane; assay type: biochemical; conditions: 40 minutes at room temperature, read-out: Kinase-inhibiting activity IC50 Aurora B
Method: (§8) Test samples: compounds 1 to 4 in the present invention (the sequence numbers and structures thereof are shown in Table 1), dilution concentration: 0.03 μM-3 μM, a total of 10 concentration gradients.
as §2
(2) Test for Aurora B Kinase Activity:
Aurora B kinase protein and the compounds were sequentially added to the following reaction system: 8 mM MOPS pH 7.0, 0.2 mM EDTA, 30 μM […], 10 mM magnesium acetate and [γ-^33P]-ATP (radioactive activity was approximately 500 cpm/pmol). Then the above reaction system was added with ATP to start the reaction, and incubated at room temperature for 40 minutes. Then the reaction was terminated by adding a 3% phosphoric acid solution. 10 μL was taken out from the reaction system, and then added dropwise to a P30 filtermat filter membrane, washed three times in 75 mM phosphoric acid solution for 5 minutes, and then washed once with methanol. After the filter was dried, count was performed by a liquid crystal scintillation counter.

[7] = molecular target: T1, Aurora A; experiment: Aurora A kinase activity test, [γ-33P]-ATP filter membrane; assay type: biochemical; conditions: 40 minutes at room temperature, read-out: Kinase-inhibiting activity IC50 Aurora A
Method: as §8, §2
(1) Test for Aurora a Kinase Activity:
Aurora A kinase protein and the compounds were sequentially added to the following reaction system: 8 mM MOPS pH 7.0, 0.2 mM EDTA, 200 μM LRRASLG (Kemptide), 10 mM magnesium acetate and [γ-^33P]-ATP (radioactive activity was approximately 500 cpm/pmol). Then the above reaction system was added with ATP to start the reaction, and incubated at room temperature for 40 minutes. Then the reaction was terminated by adding a 3% phosphoric acid solution. 10 μL was taken out from the reaction system, and then added dropwise to a P30 filtermat filter membrane, washed three times in 75 mM phosphoric acid solution for 5 minutes, and then washed once with methanol. After the filter membrane was dried, count was performed by a liquid crystal scintillation counter.

[8] = molecular target: T2, KDR(VEGFR2); experiment: KDR kinase activity test, [γ-33P]-ATP filter membrane; assay type: biochemical; conditions: 40 minutes at room temperature, read-out: Kinase-inhibiting activity IC50 KDR (VEGFR2)
Method: as §8, §2
(3) Test for KDR Kinase Activity:
KDR kinase protein and the compounds were sequentially added to the following reaction system: 8 mM MOPS pH 7.0, 0.2 mM EDTA, 0.33 mg/mL myelin basic protein, 10 mM magnesium acetate and [γ-^33P]-ATP (radioactive activity was approximately 500 cpm/pmol). Then the above reaction system was added with ATP to start the reaction, and incubated at room temperature for 40 minutes. Then the reaction was terminated by adding a 3% phosphoric acid solution. 10 μL was taken out from the reaction system, and then added dropwise to a P30 filtermat filter membrane, washed three times in a 75 mM phosphoric acid solution for 5 minutes, and then washed once with methanol. After the filter was dried, count was performed by a liquid crystal scintillation counter.

[9] = tested on: HCC1954 breast cancer cells; experiment: Cell proliferation, Cell Titer-Glo; assay type: cell-based; conditions: Homo sapiens, 72 hours, read-out: Cellular inhibitory activity IC50 HCC1954
Method: as §6, §7

[10] = tested on: OVCAR-8 ovarian cancer cells; experiment: Cell proliferation, Cell Titer-Glo; assay type: cell-based; conditions: Homo sapiens, 72 hours, read-out: Cellular inhibitory activity IC50 OVCAR-8
Method: as §6, §7

[11] = tested on: A549 Lung cancer cells; experiment: Cell proliferation, Cell Titer-Glo; assay type: cell-based; conditions: Homo sapiens, 72 hours, read-out: Cellular inhibitory activity IC50 A549
Method: as §6, §7

[12] = tested on: MDA-MB-468 breast cancer cells; experiment: Cell proliferation, Cell Titer-Glo; assay type: cell-based; conditions: Homo sapiens, 72 hours, read-out: Cellular inhibitory activity IC50 MDA-MB-468
Method: as §6, §7

[13] = tested on: OVCAR-3 ovarian cancer cells; experiment: Cell proliferation, Cell Titer-Glo; assay type: cell-based; conditions: Homo sapiens, 72 hours, read-out: Cellular inhibitory activity IC50 OVCAR-3
Method: as §6, §7

[14] = tested on: BT-549 breast cancer cells; experiment: Cell proliferation, Cell Titer-Glo; assay type: cell-based; conditions: Homo sapiens, 72 hours, read-out: Cellular inhibitory activity IC50 BT-549
Method: as §6, §7

[15] = tested on: Caov-3 ovarian cancer cells; experiment: Cell proliferation, Cell Titer-Glo; assay type: cell-based; conditions: Homo sapiens, 72 hours, read-out: Cellular inhibitory activity IC50 Caov-3
Method: as §6, §7

[16] = tested on: A2780 ovarian cancer cells; experiment: Cell proliferation, Cell Titer-Glo; assay type: cell-based; conditions: Homo sapiens, 72 hours, read-out: Cellular inhibitory activity IC50 A2780
Method: as §6, §7

[17] = tested on: HCC70 breast cancer cells; experiment: Cell proliferation, Cell Titer-Glo; assay type: cell-based; conditions: Homo sapiens, 72 hours, read-out: Cellular inhibitory activity IC50 HCC70
Method: as §6, §7

[18] = tested on: D4475 breast cancer cells; experiment: Cell proliferation, Cell Titer-Glo; assay type: cell-based; conditions: 72 hours, read-out: Cellular inhibitory activity IC50 D4475
Method: as §6, §7

[19] = tested on: HCC38 breast cancer cells; experiment: Cell proliferation, Cell Titer-Glo; assay type: cell-based; conditions: Homo sapiens, 72 hours, read-out: Cellular inhibitory activity IC50 HCC38
Method: as §6, §7

[20] = tested on: TOV-112D ovarian cancer cells; experiment: Cell proliferation, Cell Titer-Glo; assay type: cell-based; conditions: Homo sapiens, TOV112D, 72 hours, read-out: Cellular inhibitory activity IC50 TOV-112D
Method: as §6, §7

[21] = tested on: Hep3B liver cancer cells; experiment: Cell proliferation, Cell Titer-Glo; assay type: cell-based; conditions: Homo sapiens, 72 hours, read-out: Cellular inhibitory activity IC50 Hep3B
Method: as §6, §7

T3 sequence (Q96GD4 whole entry): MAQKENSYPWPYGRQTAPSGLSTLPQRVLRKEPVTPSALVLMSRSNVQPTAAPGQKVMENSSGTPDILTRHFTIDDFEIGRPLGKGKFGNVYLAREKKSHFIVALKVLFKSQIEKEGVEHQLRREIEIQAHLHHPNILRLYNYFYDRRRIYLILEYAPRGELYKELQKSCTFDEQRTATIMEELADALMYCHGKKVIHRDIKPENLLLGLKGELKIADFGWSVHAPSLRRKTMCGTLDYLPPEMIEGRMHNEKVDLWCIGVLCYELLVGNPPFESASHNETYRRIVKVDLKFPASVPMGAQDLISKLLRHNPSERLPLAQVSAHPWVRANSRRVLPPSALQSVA
T2 sequence (P35968 20-1356): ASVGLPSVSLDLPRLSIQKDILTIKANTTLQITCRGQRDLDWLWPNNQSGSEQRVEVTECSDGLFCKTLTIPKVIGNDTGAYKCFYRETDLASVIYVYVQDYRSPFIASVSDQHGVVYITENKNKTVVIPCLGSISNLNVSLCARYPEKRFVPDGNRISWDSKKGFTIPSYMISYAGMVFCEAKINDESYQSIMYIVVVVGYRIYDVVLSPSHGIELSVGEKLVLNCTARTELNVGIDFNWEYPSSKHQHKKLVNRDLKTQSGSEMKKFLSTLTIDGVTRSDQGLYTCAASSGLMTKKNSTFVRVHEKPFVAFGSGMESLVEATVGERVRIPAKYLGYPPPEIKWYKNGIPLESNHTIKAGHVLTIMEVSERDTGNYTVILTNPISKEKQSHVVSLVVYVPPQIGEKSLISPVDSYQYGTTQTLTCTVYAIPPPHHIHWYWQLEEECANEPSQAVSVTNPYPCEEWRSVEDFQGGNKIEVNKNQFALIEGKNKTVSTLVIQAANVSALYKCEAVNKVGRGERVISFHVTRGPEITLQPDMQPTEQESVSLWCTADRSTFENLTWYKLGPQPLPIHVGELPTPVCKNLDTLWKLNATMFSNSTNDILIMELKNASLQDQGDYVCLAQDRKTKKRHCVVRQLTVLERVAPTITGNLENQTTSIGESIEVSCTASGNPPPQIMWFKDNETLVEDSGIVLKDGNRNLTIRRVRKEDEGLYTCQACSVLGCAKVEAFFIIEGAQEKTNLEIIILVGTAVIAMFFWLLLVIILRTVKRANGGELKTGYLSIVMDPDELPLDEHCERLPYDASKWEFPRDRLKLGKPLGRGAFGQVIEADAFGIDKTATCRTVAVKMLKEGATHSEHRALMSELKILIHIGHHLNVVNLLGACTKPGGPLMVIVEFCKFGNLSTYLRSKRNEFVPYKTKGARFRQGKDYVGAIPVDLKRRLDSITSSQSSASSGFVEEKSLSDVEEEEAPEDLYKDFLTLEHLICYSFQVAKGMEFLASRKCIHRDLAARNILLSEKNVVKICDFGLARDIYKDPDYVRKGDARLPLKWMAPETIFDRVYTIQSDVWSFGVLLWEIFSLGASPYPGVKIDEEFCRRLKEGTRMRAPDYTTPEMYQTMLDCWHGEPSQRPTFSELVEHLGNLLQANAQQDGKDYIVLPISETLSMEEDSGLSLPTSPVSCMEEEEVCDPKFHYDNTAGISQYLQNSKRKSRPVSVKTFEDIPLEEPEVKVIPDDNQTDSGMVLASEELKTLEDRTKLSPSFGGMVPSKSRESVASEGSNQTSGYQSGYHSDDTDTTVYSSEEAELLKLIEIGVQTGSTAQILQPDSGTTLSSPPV

Structure (SMILES)	IC50 [1] [nM]	IC50 [2] [nM]	IC50 [3] [nM]	IC50 [4] [nM]	IC50 [5] [nM]	IC50 [6] [nM]	IC50 [7] [nM]	IC50 [8] [nM]	IC50 [9] [nM]	IC50 [10] [nM]	IC50 [11] [nM]	IC50 [13] [nM]	IC50 [14] [nM]	IC50 [15] [nM]	IC50 [16] [nM]	IC50 [20] [nM]	IC50 [21] [nM]	also measured
Cc1[nH]nc2c1N=C(c1ccccc1Cl)c1cnc(N3CCS(=O)(=O)CC3)cc1N2 [Compound 34]	1.3	2.3	45	81	7.5													
Cc1[nH]nc2c1N=C(c1ccccc1Cl)c1cnc(S(C)(=O)=O)cc1N2 [Compound 1]						30	12	1660										
Cc1[nH]nc2c1N=C(c1ccccc1Cl)c1cnc(CN3CCOCC3)cc1N2 [Compound 35]	4.8	8.6		80	15				732	620	578	266	509	266				IC50 [12]: 1030 nM
CCc1cc2c(cn1)C(c1ccccc1Cl)=Nc1c(n[nH]c1C)N2 [Control drug 1-2, reference compound]	1.6	3.2	452	126	4				894	613	1380	814	654	365	650	2510	244	IC50 [17]: 1520 nM; IC50 [12]: 1380 nM; IC50 [18]: 443 nM; IC50 [19]: 1100 nM
Cc1[nH]nc2c1N=C(c1ccccc1Cl)c1cnc(OC3CCOC3)cc1N2 (stereo not shown) [Compound 4]						3	4	1520										
Cc1[nH]nc2c1N=C(c1ccccc1Cl)c1cnc(C3CC3)cc1N2 [Compound 2]						4	< 3	593										
Cc1[nH]nc2c1N=C(c1ccccc1Cl)c1cnc(N3CCN(C)CC3)cc1N2 [Compound 22, 5-(2-chlorophenyl)-3-methyl-8-(4-methylpiperazin-1-yl)-2,10-dihydropyrazolo[4,3-b]pyrido[4,3-e][1,4]diazepine]	1.2	0.91	5	19	7.1					433		752		146	34	650	67	
CCN1CCN(Cc2cc3c(cn2)C(c2ccccc2Cl)=Nc2c(n[nH]c2C)N3)CC1 [Compound 33]	4.8	1.6			5.8				538				421					IC50 [17]: 866 nM; IC50 [19]: 700 nM
Cc1[nH]nc2c1N=C(c1ccccc1Cl)c1cnc(N3CCOCC3)cc1N2 [Compound 29, 4-(5-(2-chlorophenyl)-3-methyl-2,10-dihydropyrazolo[4,3-b]pyrido[4,3-e][1,4]diazepin-8-yl)morpholine]	0.49	1.2	5	48	5				396	305	322	307	170	184	35	955	50	IC50 [18]: 113 nM
COc1cc2c(cn1)C(c1ccccc1Cl)=Nc1c(n[nH]c1C)N2 [Compound 3]						8	4	876										

Source: patent US11718620B2, “Method for treating a cancer mediated by abnormality of multi-kinases” (TransThera Sciences (Nanjing), Inc., priority 2016, dated 2023)
